Assay results from US20100280052A1, “USE OF ANTIVIRALS TO TREAT CMV-RELATED CONDITIONS” (priority 2007, published 2010).

What was measured:
CMV [1] = conditions: ganciclovir and valganciclovir compared with acyclovir and valacyclovir; cited from earlier work
[2] = cited from earlier work; for side effects: at common doses
CMV-specific T cells [3] = assay: Elispot analysis of antigen-specific T cells after CMV lysate stimulation (Example 1, FIG. 11); type: in vivo, human; conditions: patients taking ACV or VCV vs healthy CMV seropositive donors
Method: (§1) The CMV-specific immune response was measured in a cohort of CMV seropositive or seronegative donors who are taking acyclovir or valaciclovir. This was compared to an age-matched control cohort. […] Comprehensive analysis of (1) the total T cell profile of these donors, and (2) their CMV-specific response, was performed. The results were compared to an age-matched control group of CMV seropositive or seronegative donors.
A reduced Elispot response to CMV is seen in patients taking ACV or VCV.

[4] = test system: CMV-specific CD4+ T cells; assay: CD4+ T cells producing interferon-gamma after CMV lysate stimulation, single individual (Example 2, FIG. 17); type: in vivo, human; conditions: before, 3 and 14 months after treatment with acyclovir 40 mg b.d.
Source text: Referring to FIG. 17, the blood was stimulated with CMV lysate, and the percentage of CD4+ T cells which produce interferon-gamma in response to antigen measured. It can be seen that this percentage was reduced on treatment.

CD8+ T cells = assay: CD57 antibody staining of peripheral blood CD8+ T cells (Example 1, FIG. 16); type: in vivo, human; conditions: CMV seropositive donors, patients taking drug vs healthy controls
Method: as §1

CMV-specific T cells [5] = assay: Interferon-gamma Elispot analysis of CMV-specific T cells, single individual (Example 2, FIG. 18); type: in vivo, human; conditions: before, 3 and 14 months after treatment with acyclovir 40 mg b.d., CMV lysate or pp65 or IE-1 peptide pools
Source text: Finally, referring to FIG. 18, the blood was stimulated with CMV lysate, or peptide pools from CMV pp65 or IE-1, and the number of CMV-specific T cells was detected using interferon-gamma Elispot analysis. It can be seen that the magnitude of this response was reduced by treatment.

CMV-specific T cells [6] = assay: CMV-specific T cells detected by Interferon-gamma expression in blood of patients taking ACV or VCV (Example 1, FIGS. 9, 10); type: in vivo, human
CD4+ T cells = assay: CD27, CD28, CD57 antibody staining of peripheral blood CD4+ T cells (Example 1, FIGS. 12-15); type: in vivo, human; conditions: CMV-seropositive patients taking ACV or VCV vs healthy donors; for percentage of CD4+ T cells which have lost expression of CD27: FIGS. 12, 13; for percentage of CD4+ T cells which have lost expression of CD28: FIGS. 12, 14; for percentage of CD4+ T cells which have gained expression of CD57: FIGS. 12, 15
Method: as §1
In FIG. 12, CD4+ T cells in peripheral blood of 35 CMV-seropositive or seronegative healthy donors were stained with antibodies to CD27, CD28 or CD57. These are shown on the left panel. A similar analysis was performed on patients taking acyclovir or valacyclovir (right hand panel). It can be seen that the percentage of CD4 + T cells which have lost expression of CD27 or CD28, or have gained expression of CD57, is lower in CMV-seropositive patients who are taking ACV or VCV in comparison to healthy donors.
Referring to FIG. 13, CD4+ T cells in peripheral blood of 25 healthy donors or patients taking ACV or VCV were stained with antibodies to CD27.
Referring to FIG. 14, CD4+ T cells in peripheral blood of 25 healthy donors or patients taking ACV or VCV were stained with antibodies to CD28.
Referring to FIG. 15, CD4+ T cells in peripheral blood of 25 healthy donors or patients taking ACV or VCV were stained with antibodies to CD57.

CMV [7] = conditions: cited from earlier work
[8] = prodrug compared with penciclovir; cited from earlier work
[9] = FIG. 9, CMV seropositive patients on ACV 400 mg b.d. or VCV 500 mg o.d. or b.d. vs healthy control CMV seropositive donors, CMV lysate or pp65 and IE-1 peptide pools
[10] = FIG. 10, time-dependent effect, ACV 400 mg b.d. or VCV 500 mg o.d. or b.d., CMV lysate

Structure (SMILES) | activity against CMV (CMV [1]) | Elispot response to CMV (CMV-specific T cells [3]) | percentage of CD8+ T cells which express CD57 (CD8+ T cells) | number of CMV-specific T cells (Interferon-gamma expression) (CMV-specific T cells [6]; [9]) | number of CMV-specific T cells (Interferon-gamma expression) (CMV-specific T cells [6]; [10]) | percentage of CD4+ T cells which have lost expression of CD27 (CD4+ T cells) | percentage of CD4+ T cells which have lost expression of CD28 (CD4+ T cells) | percentage of CD4+ T cells which have gained expression of CD57 (CD4+ T cells) | side effects [2] | also measured
CC(C)[C@H](N)C(=O)OCC(CO)OCn1cnc2c(=O)nc(N)[nH]c21 (stereo partly shown) [valganciclovir] | markedly improved activity | – | – | – | – | – | – | – | – | –
Nc1nc2c(ncn2CCC(CO)CO)c(=O)[nH]1 [penciclovir] | minimal activity | – | – | – | – | – | – | – | – | side effects compared with acyclovir ([2]; treatment of herpesvirus infections): fewer side effects
Nc1nc(O)c2ncn(COC(CO)CO)c2n1 [ganciclovir] | markedly improved activity | – | – | – | – | – | – | – | – | carcinogenicity, teratogenicity, mutagenicity ([2]; human): potential human carcinogen, teratogen, and mutagen
Nc1nc2c(ncn2COCCO)c(=O)[nH]1 [acyclovir, 9-(2-hydroxyethoxymethyl)guanine] | – | reduced | reduced | reduced | reduced | reduced | reduced | reduced | nausea, vomiting, diarrhoea and/or headaches | percentage of CD4+ T cells which produce interferon-gamma in response to antigen [4]: reduced; number of CMV-specific T cells (magnitude of interferon-gamma Elispot response) (CMV-specific T cells [5]): reduced; percentage of CD4+ T cells which have lost expression of CD27 (CD4+ T cells; listed as ACV): lower; percentage of CD4+ T cells which have lost expression of CD28 (CD4+ T cells; listed as ACV): lower; percentage of CD4+ T cells which have gained expression of CD57 (CD4+ T cells; listed as ACV): lower; activity against CMV replication in vitro (CMV [7]): minimal activity
CC(C)[C@H](N)C(=O)OCCOCn1cnc2c(=O)[nH]c(N)nc21 [valacyclovir] | – | reduced | reduced | reduced | reduced | reduced | reduced | reduced | nausea, vomiting, diarrhoea and/or headaches | percentage of CD4+ T cells which have lost expression of CD27 (CD4+ T cells; listed as VCV): lower; percentage of CD4+ T cells which have lost expression of CD28 (CD4+ T cells; listed as VCV): lower; percentage of CD4+ T cells which have gained expression of CD57 (CD4+ T cells; listed as VCV): lower
CC(=O)OCC(CCn1cnc2cnc(N)nc21)COC(C)=O [Famciclovir] | – | – | – | – | – | – | – | – | – | bioavailability [8]: improved bioavailability
